# Measured values taken from PubChem BioAssay (NCI).
#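 Interpolation was linear, between the two tested concentrations surrounding the appropriate level; five concentrations were tested over 48 hours in 96-well plates. The concentration for full growth arrest is given as TGI.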
# Columns and labels:
# Experiment in all cases: NCI-60 cell line screen, 48 h
# NCI-H23 lung = tested on: NCI-H23 lung
# LOX IMVI melanoma = tested on: LOX IMVI melanoma
# SF-295 CNS = tested on: SF-295 CNS
# NCI-H522 lung = tested on: NCI-H522 lung
# UACC-62 melanoma = tested on: UACC-62 melanoma
# T-47D breast = tested on: T-47D breast
# 786-0 renal = tested on: 786-0 renal
# OVCAR-3 ovarian = tested on: OVCAR-3 ovarian
# HCT-15 colon = tested on: HCT-15 colon
# K-562 leukemia = tested on: K-562 leukemia
# SNB-19 CNS = tested on: SNB-19 CNS
# A549 NSCLC = tested on: A549 NSCLC
# SW-620 colon = tested on: SW-620 colon
# EKVX NSCLC = tested on: EKVX NSCLC
# SK-MEL-28 melanoma = tested on: SK-MEL-28 melanoma
# U251 CNS = tested on: U251 CNS
# UO-31 renal = tested on: UO-31 renal
# SNB-75 CNS = tested on: SNB-75 CNS
# MDA-N = tested on: MDA-N
# HT29 colon = tested on: HT29 colon
# RXF 393 renal = tested on: RXF 393 renal
# HOP-92 NSCLC = tested on: HOP-92 NSCLC
# MALME-3M melanoma = tested on: MALME-3M melanoma
# KM12 colon = tested on: KM12 colon
# ACHN renal = tested on: ACHN renal
# PC-3 prostate = tested on: PC-3 prostate
# SK-MEL-5 melanoma = tested on: SK-MEL-5 melanoma
# HS 578T breast = tested on: HS 578T breast
# HCT-116 colon = tested on: HCT-116 colon
# M14 melanoma = tested on: M14 melanoma
# MDA-MB-231 breast = tested on: MDA-MB-231 breast
# CAKI-1 renal = tested on: CAKI-1 renal
# SN12C renal = tested on: SN12C renal
# SK-OV-3 ovarian = tested on: SK-OV-3 ovarian
# SF-268 CNS = tested on: SF-268 CNS
# BT-549 breast = tested on: BT-549 breast
# OVCAR-8 ovarian = tested on: OVCAR-8 ovarian
# COLO 205 colon = tested on: COLO 205 colon
# OVCAR-5 ovarian = tested on: OVCAR-5 ovarian
# IGROV1 ovarian = tested on: IGROV1 ovarian
# MDA-MB-435 = tested on: MDA-MB-435
# TK-10 renal = tested on: TK-10 renal
# NCI-H226 lung = tested on: NCI-H226 lung
# RPMI-8226 leukemia = tested on: RPMI-8226 leukemia
# MCF7 breast = tested on: MCF7 breast
# HOP-62 NSCLC = tested on: HOP-62 NSCLC
# DU-145 prostate = tested on: DU-145 prostate
# A498 renal = tested on: A498 renal
# UACC-257 melanoma = tested on: UACC-257 melanoma
# NCI/ADR-RES ovarian = tested on: NCI/ADR-RES ovarian
# MOLT-4 leukemia = tested on: MOLT-4 leukemia
# OVCAR-4 ovarian = tested on: OVCAR-4 ovarian
# HCC-2998 colon = tested on: HCC-2998 colon
# SF-539 CNS = tested on: SF-539 CNS
# SK-MEL-2 melanoma = tested on: SK-MEL-2 melanoma
# NCI-H460 lung = tested on: NCI-H460 lung
structure (smiles),measurement,setting,value
O=C1c2ccccc2C(C2c3ccccc3C(=O)c3cc(Br)ccc32)c2ccc(Br)cc21 (centres undefined),TGI,NCI-H23 lung,> 100 µM
same,TGI,LOX IMVI melanoma,> 100 µM
same,TGI,SF-295 CNS,> 100 µM
same,TGI,NCI-H522 lung,> 100 µM
same,TGI,UACC-62 melanoma,> 100 µM
same,TGI,T-47D breast,> 100 µM
same,TGI,786-0 renal,> 100 µM
same,TGI,OVCAR-3 ovarian,> 100 µM
same,TGI,HCT-15 colon,> 100 µM
same,TGI,K-562 leukemia,> 100 µM
same,TGI,SNB-19 CNS,> 100 µM
same,TGI,A549 NSCLC,> 100 µM
same,TGI,SW-620 colon,> 100 µM
same,TGI,EKVX NSCLC,> 100 µM
same,TGI,SK-MEL-28 melanoma,> 100 µM
same,TGI,U251 CNS,> 100 µM
same,TGI,UO-31 renal,> 100 µM
same,TGI,SNB-75 CNS,> 100 µM
same,TGI,MDA-N,> 100 µM
same,TGI,HT29 colon,> 100 µM
same,TGI,RXF 393 renal,> 100 µM
same,TGI,HOP-92 NSCLC,> 100 µM
same,TGI,MALME-3M melanoma,> 100 µM
same,TGI,KM12 colon,> 100 µM
same,TGI,ACHN renal,> 100 µM
same,TGI,PC-3 prostate,> 100 µM
same,TGI,SK-MEL-5 melanoma,> 100 µM
same,TGI,HS 578T breast,> 100 µM
same,TGI,HCT-116 colon,> 100 µM
same,TGI,M14 melanoma,> 100 µM
same,TGI,MDA-MB-231 breast,> 100 µM
same,TGI,CAKI-1 renal,> 100 µM
same,TGI,SN12C renal,> 100 µM
same,TGI,SK-OV-3 ovarian,> 100 µM
same,TGI,SF-268 CNS,> 100 µM
same,TGI,BT-549 breast,> 100 µM
same,TGI,OVCAR-8 ovarian,> 100 µM
same,TGI,COLO 205 colon,> 100 µM
same,TGI,OVCAR-5 ovarian,> 100 µM
same,TGI,IGROV1 ovarian,> 100 µM
same,TGI,MDA-MB-435,> 100 µM
same,TGI,TK-10 renal,> 100 µM
same,TGI,NCI-H226 lung,> 100 µM
same,TGI,RPMI-8226 leukemia,> 100 µM
same,TGI,MCF7 breast,> 100 µM
same,TGI,HOP-62 NSCLC,> 100 µM
same,TGI,DU-145 prostate,> 100 µM
same,TGI,A498 renal,> 100 µM
same,TGI,UACC-257 melanoma,> 100 µM
same,TGI,NCI/ADR-RES ovarian,> 100 µM
same,TGI,MOLT-4 leukemia,> 100 µM
same,TGI,OVCAR-4 ovarian,> 100 µM
same,TGI,HCC-2998 colon,> 100 µM
CCOC(=O)C1=COC(C)(c2ccccc2)CC1=O (centres undefined),TGI,NCI-H23 lung,> 100 µM
same,TGI,SF-295 CNS,> 100 µM
same,TGI,NCI-H522 lung,> 100 µM
same,TGI,UACC-62 melanoma,> 100 µM
same,TGI,T-47D breast,> 100 µM
same,TGI,786-0 renal,> 100 µM
same,TGI,OVCAR-3 ovarian,> 100 µM
same,TGI,HCT-15 colon,> 100 µM
same,TGI,K-562 leukemia,> 100 µM
same,TGI,SNB-19 CNS,> 100 µM
same,TGI,A549 NSCLC,> 100 µM
same,TGI,SW-620 colon,> 100 µM
same,TGI,EKVX NSCLC,> 100 µM
same,TGI,SK-MEL-28 melanoma,> 100 µM
same,TGI,U251 CNS,> 100 µM
same,TGI,UO-31 renal,> 100 µM
same,TGI,SNB-75 CNS,> 100 µM
same,TGI,MDA-N,> 100 µM
same,TGI,SF-539 CNS,> 100 µM
same,TGI,HT29 colon,> 100 µM
same,TGI,RXF 393 renal,> 100 µM
same,TGI,KM12 colon,> 100 µM
same,TGI,ACHN renal,> 100 µM
same,TGI,PC-3 prostate,> 100 µM
same,TGI,SK-MEL-5 melanoma,> 100 µM
same,TGI,HS 578T breast,> 100 µM
same,TGI,HCT-116 colon,> 100 µM
same,TGI,M14 melanoma,> 100 µM
same,TGI,MDA-MB-231 breast,> 100 µM
same,TGI,CAKI-1 renal,> 100 µM
same,TGI,SN12C renal,> 100 µM
same,TGI,SK-OV-3 ovarian,> 100 µM
same,TGI,SF-268 CNS,> 100 µM
same,TGI,BT-549 breast,> 100 µM
same,TGI,SK-MEL-2 melanoma,> 100 µM
same,TGI,OVCAR-8 ovarian,> 100 µM
same,TGI,COLO 205 colon,> 100 µM
same,TGI,OVCAR-5 ovarian,> 100 µM
same,TGI,MDA-MB-435,> 100 µM
same,TGI,NCI-H460 lung,> 100 µM
same,TGI,TK-10 renal,> 100 µM
same,TGI,RPMI-8226 leukemia,> 100 µM
same,TGI,MCF7 breast,> 100 µM
same,TGI,HOP-62 NSCLC,> 100 µM
same,TGI,DU-145 prostate,> 100 µM
same,TGI,A498 renal,> 100 µM
same,TGI,UACC-257 melanoma,> 100 µM
same,TGI,NCI/ADR-RES ovarian,> 100 µM
same,TGI,MOLT-4 leukemia,98 µM
same,TGI,OVCAR-4 ovarian,> 100 µM
same,TGI,HCC-2998 colon,> 100 µM
